{
  "source": "paper PMC6494879",
  "about": "“Drug resistance emergence in macaques administered cabotegravir long-acting for pre-exposure prophylaxis during acute SHIV infection” (Nature Communications, 2019)",
  "system": "RT-SHIV",
  "assay": "Plasma SHIV RNA (RT-PCR) in RT-SHIV-infected macaques treated with CAB LA",
  "settings": "for Median VL treated: median of treated macaques",
  "procedure": "CAB LA (200 mg/mL injectable stock aqueous suspension) was given at a dose of 50 mg kg^−1 under anesthesia by intramuscular injection into the quadriceps. Volumes greater than 1.0 mL were divided into two injection sites.",
  "data": [
    {"smiles": "C[C@H]1CO[C@@H]2Cn3cc(C(=O)NCc4ccc(F)cc4F)c(=O)c(O)c3C(=O)N12", "note": "[CAB, cabotegravir]", "values": [
      {"measurement": "SHIV RNA copies/ml", "setting": "macaque CH54, day 32", "result": 3049, "unit": "copies/ml"},
      {"measurement": "SHIV RNA copies/ml", "setting": "macaque CH54, day 36", "result": 1291, "unit": "copies/ml"},
      {"measurement": "SHIV RNA copies/ml", "setting": "macaque CH54, day 39", "result": 1031, "unit": "copies/ml"},
      {"measurement": "SHIV RNA copies/ml", "setting": "macaque CH54, day 43", "result": 750, "unit": "copies/ml"},
      {"measurement": "SHIV RNA copies/ml", "setting": "macaque CH54, day 46", "result": 485, "unit": "copies/ml"},
      {"measurement": "SHIV RNA copies/ml", "setting": "macaque CH54, day 50", "result": 803, "unit": "copies/ml"},
      {"measurement": "SHIV RNA copies/ml", "setting": "macaque CH54, day 53", "result": 49, "unit": "copies/ml"},
      {"measurement": "SHIV RNA copies/ml", "setting": "macaque CH54, day 57", "result": 158, "unit": "copies/ml"},
      {"measurement": "SHIV RNA copies/ml", "setting": "macaque CH54, day 60", "result": 2633, "unit": "copies/ml"},
      {"measurement": "SHIV RNA copies/ml", "setting": "macaque CH54, day 64", "result": 1132, "unit": "copies/ml"},
      {"measurement": "SHIV RNA copies/ml", "setting": "macaque CH54, day 67", "result": 4979, "unit": "copies/ml"},
      {"measurement": "SHIV RNA copies/ml", "setting": "macaque CJ92, day 14", "result": 87372, "unit": "copies/ml"},
      {"measurement": "SHIV RNA copies/ml", "setting": "macaque CJ92, day 16", "result": 9159, "unit": "copies/ml"},
      {"measurement": "SHIV RNA copies/ml", "setting": "macaque CJ92, day 18", "result": 1727, "unit": "copies/ml"},
      {"measurement": "SHIV RNA copies/ml", "setting": "macaque CJ92, day 22", "result": 101, "unit": "copies/ml"},
      {"measurement": "SHIV RNA copies/ml", "setting": "macaque CJ92, day 25", "result": 49, "unit": "copies/ml"},
      {"measurement": "SHIV RNA copies/ml", "setting": "macaque CJ92, day 29", "result": 423, "unit": "copies/ml"},
      {"measurement": "SHIV RNA copies/ml", "setting": "macaque CJ92, day 32", "result": 300, "unit": "copies/ml"},
      {"measurement": "SHIV RNA copies/ml", "setting": "macaque CJ92, day 36", "result": 57, "unit": "copies/ml"},
      {"measurement": "SHIV RNA copies/ml", "setting": "macaque CJ92, day 39", "result": 270, "unit": "copies/ml"},
      {"measurement": "SHIV RNA copies/ml", "setting": "macaque CJ92, day 43", "result": 49, "unit": "copies/ml"},
      {"measurement": "SHIV RNA copies/ml", "setting": "macaque CJ92, day 46", "result": 108, "unit": "copies/ml"},
      {"measurement": "SHIV RNA copies/ml", "setting": "macaque CJ92, day 50", "result": 163, "unit": "copies/ml"},
      {"measurement": "SHIV RNA copies/ml", "setting": "macaque CJ92, day 53", "result": 49, "unit": "copies/ml"},
      {"measurement": "SHIV RNA copies/ml", "setting": "macaque CJ92, day 57", "result": 49, "unit": "copies/ml"},
      {"measurement": "SHIV RNA copies/ml", "setting": "macaque CJ92, day 60", "result": 49, "unit": "copies/ml"},
      {"measurement": "SHIV RNA copies/ml", "setting": "macaque CJ92, day 64", "result": 49, "unit": "copies/ml"},
      {"measurement": "SHIV RNA copies/ml", "setting": "macaque CJ92, day 67", "result": 50, "unit": "copies/ml"},
      {"measurement": "Median VL treated", "setting": "day 0", "result": 49, "unit": "copies/ml"},
      {"measurement": "Median VL treated", "setting": "day 2", "result": 21683, "unit": "copies/ml"},
      {"measurement": "Median VL treated", "setting": "day 4", "result": 196903, "unit": "copies/ml"},
      {"measurement": "Median VL treated", "setting": "day 7", "result": 674920, "unit": "copies/ml"},
      {"measurement": "Median VL treated", "setting": "day 9", "result": 6944678, "unit": "copies/ml"},
      {"measurement": "Median VL treated", "setting": "day 11", "result": 4288688, "unit": "copies/ml"},
      {"measurement": "Median VL treated", "setting": "day 14", "result": 167021, "unit": "copies/ml"},
      {"measurement": "Median VL treated", "setting": "day 16", "result": 25119, "unit": "copies/ml"},
      {"measurement": "Median VL treated", "setting": "day 18", "result": 5906, "unit": "copies/ml"},
      {"measurement": "Median VL treated", "setting": "day 22", "result": 688, "unit": "copies/ml"},
      {"measurement": "Median VL treated", "setting": "day 25", "result": 322, "unit": "copies/ml"},
      {"measurement": "Median VL treated", "setting": "day 29", "result": 1263, "unit": "copies/ml"},
      {"measurement": "Median VL treated", "setting": "day 32", "result": 345, "unit": "copies/ml"},
      {"measurement": "Median VL treated", "setting": "day 36", "result": 160, "unit": "copies/ml"},
      {"measurement": "Median VL treated", "setting": "day 39", "result": 293, "unit": "copies/ml"},
      {"measurement": "Median VL treated", "setting": "day 43", "result": 192, "unit": "copies/ml"},
      {"measurement": "Median VL treated", "setting": "day 46", "result": 92, "unit": "copies/ml"},
      {"measurement": "Median VL treated", "setting": "day 50", "result": 229, "unit": "copies/ml"},
      {"measurement": "Median VL treated", "setting": "day 53", "result": 60, "unit": "copies/ml"},
      {"measurement": "Median VL treated", "setting": "day 57", "result": 91, "unit": "copies/ml"},
      {"measurement": "Median VL treated", "setting": "day 60", "result": 69, "unit": "copies/ml"},
      {"measurement": "Median VL treated", "setting": "day 64", "result": 429, "unit": "copies/ml"},
      {"measurement": "Median VL treated", "setting": "day 67", "result": 85, "unit": "copies/ml"},
      {"measurement": "Median VL treated", "setting": "day 71", "result": 205, "unit": "copies/ml"},
      {"measurement": "Median VL treated", "setting": "day 74", "result": 49, "unit": "copies/ml"},
      {"measurement": "Median VL treated", "setting": "day 78", "result": 76, "unit": "copies/ml"},
      {"measurement": "Median VL treated", "setting": "day 81", "result": 64, "unit": "copies/ml"},
      {"measurement": "Median VL treated", "setting": "day 85", "result": 85, "unit": "copies/ml"},
      {"measurement": "Median VL treated", "setting": "day 88", "result": 61, "unit": "copies/ml"},
      {"measurement": "Median VL treated", "setting": "day 92", "result": 59, "unit": "copies/ml"},
      {"measurement": "Median VL treated", "setting": "day 95", "result": 80, "unit": "copies/ml"},
      {"measurement": "Median VL treated", "setting": "day 102", "result": 49, "unit": "copies/ml"},
      {"measurement": "Median VL treated", "setting": "day 106", "result": 61, "unit": "copies/ml"},
      {"measurement": "Median VL treated", "setting": "day 115", "result": 2657, "unit": "copies/ml"},
      {"measurement": "Median VL treated", "setting": "day 120", "result": 15539, "unit": "copies/ml"},
      {"measurement": "Median VL treated", "setting": "day 134", "result": 2817, "unit": "copies/ml"},
      {"measurement": "Median VL treated", "setting": "day 143", "result": 2103, "unit": "copies/ml"},
      {"measurement": "Median VL treated", "setting": "day 148", "result": 2164, "unit": "copies/ml"},
      {"measurement": "Median VL treated", "setting": "day 155", "result": 1667, "unit": "copies/ml"},
      {"measurement": "Median VL treated", "setting": "day 162", "result": 1714, "unit": "copies/ml"},
      {"measurement": "Median VL treated", "setting": "day 170", "result": 1307, "unit": "copies/ml"},
      {"measurement": "Median VL treated", "setting": "day 176", "result": 558, "unit": "copies/ml"},
      {"measurement": "Median VL treated", "setting": "day 183", "result": 4928, "unit": "copies/ml"},
      {"measurement": "Median VL treated", "setting": "day 190", "result": 6516, "unit": "copies/ml"},
      {"measurement": "Median VL treated", "setting": "day 197", "result": 8692, "unit": "copies/ml"},
      {"measurement": "Median VL treated", "setting": "day 204", "result": 9657, "unit": "copies/ml"}
    ]}
  ]
}
